Columns and labels:
[1] = molecular target: T1, SaMhqR (Staphylococcus aureus, UniProt W8U802); assay: crystal structure (co-crystallized with MHQ, oxidized to MBQ) and ITC; assay type: binding
T1 construct: gene ACR79_11795; full-length (144 amino acids), C-terminal His-tag, homodimer

[2] = molecular target: T1, SaMhqR; assay: ITC; assay type: binding

T1 sequence (W8U802 entry or part of it): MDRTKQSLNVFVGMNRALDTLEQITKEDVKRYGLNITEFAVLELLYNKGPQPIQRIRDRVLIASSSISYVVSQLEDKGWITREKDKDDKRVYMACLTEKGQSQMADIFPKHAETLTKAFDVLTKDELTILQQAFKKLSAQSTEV

CC1=CC(=O)C=CC1=O [MBQ, 2-methylbenzoquinone]
Kd [1]: ~3 µM

Cc1cc(O)ccc1O [MHQ, 2-methylhydroquinone]
Kd [2]: ~6 µM

Reference: publication PMC12893000, “Structural basis of quinone sensing by the MarR-type repressor MhqR in Staphylococcus aureus” (mBio, 2025)
